The values below come from patent publication US20110268722A1, “COMBINATION THERAPIES WITH MITOCHONDRIAL-TARGETED ANTI-TUMOR AGENTS” (priority 2010, published 2011).

Where a SMILES comes first, the peptide text is derived from it. The star is where a group is joined. Cbz = O=C(OCc1ccccc1)*; CH2F = FC*

In assay [1] the test system is U87 cells. Kind of assay: MTT viability with inhibitors of phagosome formation plus G-TPP. It counts as cell-based, human. As to conditions: inhibitor 1 hour then G-TPP, MTT after 16 hours. The procedure:
FIG. 11A is a graph of the percent viability of U87 cells following incubation with inhibitors of phagosome formation, bafilomycin A (BF) or 3-methyladenine (3-MA), for 1 hour and treatment with G-TPP. MTT analysis was performed after 16 hours with MTT. The mean data±standard deviation are shown.
(§1) For autophagy, glioblastoma cells were transfected with an LC3-GFP cDNA by FuGENE HD (Roche), treated with vehicle, nontargeted 17-AAG, or G-TPP, and analyzed by fluorescence microscopy. […] An average of 200 cells was counted in 4-6 independent fields per condition. In some experiments, G-TPP-treated cells were incubated with pharmacologic inhibitors of autophagy, BF, or 3-MA, and analyzed after 16 hours for modulation of cell viability by MTT.

In assay [2] the test system is LN229 cells. Kind of assay: Electron microscopy of treated cells. It counts as cell-based, human. Particulars: 5-10 μM, 16 hours. How it is done:
Subconfluent monolayers of LN229 cells were incubated with PBS, pH 7.2, or G-TPP or nontargeted 17-AAG (5-10 μM) for 16 hours at 37° C. Cells were washed briefly in 0.1 M PBS, pH 7.4, fixed in buffered 2.5% glutaraldehyde (GA) with or without 4% formaldehyde (FA) or for 30 minutes at 22° C., post-fixed in 1% osmium tetroxide, and processed by standard methods for epoxy embedding. In some experiments, cells were fixed in buffered 3% FA with 0.1% GA for 25 minutes at 22° C., washed, quenched with NH4Cl, and dehydrated for embedding in LR White resin. Ultrathin sections on nickel grids were treated for heat-induced antigen retrieval and blocked with buffered 1% BSA, as described in published protocols (Yamashita et al., Methods Mol. Biol. 657:237-248, 2010). Samples were incubated with an antibody to COX IV, followed by a colloidal gold-conjugated (12 nm) secondary antibody of appropriate specificity (Jackson ImmunoResearch). Grids were briefly post-fixed with 2% GA, washed, air dried, and then exposed to osmium tetroxide vapors for 20 minutes. Ultrathin sections were stained with uranyl acetate and lead citrate before examination in a Philips CM10 transmission electron microscope.

Assay [3] has as its system NF-κB promoter in U251 cells. Kind of assay: NF-κB luciferase promoter activity. It counts as cell-based, human. Particulars: U251, luciferase normalized to β-galactosidase. The procedure:
FIG. 12A is a graph showing the relative light units (RLU) of U251 cells from luciferase produced from a NF-κB promoter following no treatment or treatment with G-TPP or TRAIL. The luciferase data are normalized to β-galactosidase. TRAIL (800 ng/mL) was used as a control. The mean data±standard deviation are shown.
FIG. 12B is a graph showing the RLU of U251 cells from luciferase produced from a NF-κB promoter following no treatment or treatment with G-TPP in the presence or absence of TNF-α. The luciferase data are normalized to β-galactosidase. The mean data±standard deviation are shown.
(§2) FIG. 14B is a graph showing the RLU of U251 cells from luciferase produced from a NF-κB or cFLIP promoter following treatment with non-targeted 17-AAG. Cells were analyzed after 9 hours for luciferase activity. The mean data±SEM of replicates of a representative experiment are shown.
(§3) Tumor cell types were transfected with NF-κB (Mehrota et al., Cancer Cell 17:53-64, 2010), p53, or FLIP luciferase promoter construct (pGL3-FLIP1500; Addgene #16016) using FuGENE HD. After 24 hours at 37° C., cells were stimulated with G-TPP or 17-AAG (0-10 μM) for 6 hours, harvested, and analyzed for β-galactosidase-normalized luciferase activity in a luminometer, as described (Mehrota et al., Cancer Cell 17:53-64, 2010). In some experiments, β-galactosidase-normalized NF-κB promoter activity was examined after cell stimulation with TNF-α, as described (Mehrota et al., Cancer Cell 17:53-64, 2010).

Assay [4] concerns FLIP promoter in U251 cells. The assay is described as follows: FLIP luciferase promoter activity. It counts as cell-based, human. How it is done:
FIG. 13A is a graph showing the RLU of U251 cells from luciferase produced from a FLIP promoter following no treatment or treatment with two different concentrations of G-TPP. The luciferase data are normalized to β-galactosidase. The mean data±standard deviation are shown.
as §2, §3

Assay [5] concerns U251 cells. The assay is described as follows: Annexin V / propidium iodide flow cytometry. It counts as cell-based, human. As to conditions: 5 μM TPP-GA, 25 ng/ml TRAIL, alone or combined. For orientation: In flow cytometry, cells or beads pass a laser one at a time.
Assay [6] has as its system LN229 cells. Kind of assay: Western blotting of caspase, BID and PARP cleavage. It counts as cell-based, human. As to conditions: 5 μM TPP-GA, 200 ng/ml TRAIL, alone or combined, 16 hours. How it is done:
(§4) Western blotting was employed to elucidate the proteolytic mechanism in TRAIL and TRAIL+Gamitrinib-induced apoptosis. Since Gamitrinibs augment TRAIL-induced apoptosis, the activation/cleavage of caspases-3, -7, -8, -9, BH3 interacting domain death agonist (BID), and Poly-ADP-ribose polymerase (PARP) was examined. […] The time course of activation/cleavage of caspases-3, -7, -8, -9, BID, and PARP over 24 hours was also examined following treatment of LN229 (FIG. 3C) or U251 (FIG. 3D) cells with 5 μM TPP-GA and 200 or 20 ng/ml TRAIL, respectively.
On the technique in general: Immunoblotting shows a protein as a band on a membrane.

The subject of assay [7] is U251 cells. Kind of assay: Western blotting of caspase, BID and PARP cleavage. It counts as cell-based, human. As to conditions: 5 μM TPP-GA, 20 ng/ml TRAIL, alone or combined, 16 hours. The procedure: as §4
In assay [8] the test system is U87-luc glioblastoma cells. The assay is described as follows: Orthotopic glioblastoma tumor model, bioluminescence imaging. As to conditions: CB17 SCID/beige mice; TRAIL 2 μg intracranially, TPP intraperitoneally. It counts as in vivo. How it is done:
Since Gamitrinib-TPP dramatically sensitizes cancer cells in vitro it was of highest interest to assess efficacy in vivo. To this end, efficacy of TRAIL, TPP, or the combination of both was determined in an orthotopic glioblastoma tumor model. Twenty nude mice were intracranially injected with U87-luc glioblastoma cells. U87 glioblastoma cells stably transfected with a luciferase expression plasmid (U87-Luc) were suspended in sterile PBS, pH 7.2, and stereotactically implanted (1×10^5) in the right cerebral striatum of immunocompromised CB17 SCID/beige female mice (Charles River Laboratories). Treatment group 1 received only vehicle solutions. Group 2 received TRAIL intracranially (2 μg) and carrier solution intraperitoneally. Group 3 received PBS intracranially and TPP intraperitoneally in a carrier solution consisting of 20% Cremophor in PBS. Group 4 received both TRAIL and TPP. Tumor growth was assessed after each intracranial injection by application of 58 mg/kg D-luciferin and subsequent bioluminescence imaging using a Xenogen In Vivo Imaging System. […]
Five days after injection of U87-luc glioblastoma cells, the mice were scanned, quantified and according to signal strength randomized into 4 treatment groups (Group 1: Vehicle, Group 2: TRAIL, Group 3: TPP, Group 4: TRAIL+TPP) (FIGS. 5A, 6A).

Assay [9] deals with U87 cells. The assay is described as follows: LC3 immunoblot (autophagy). As to conditions: over time. It counts as cell-based, human. How it is done: FIG. 10A is an immunoblot of lysates from U87 cells following treatment with G-TPP for the indicated periods of time. The position of the unmodified (I) and lipidated form (II) form of LC3 are indicated.
(§5) The various cell types were seeded in triplicate onto 96-well plates at 2×10^3 cells/well, treated with vehicle, G-TPP, or nontargeted 17-AAG (0-20 μM) for up to 24 hours, and quantified for metabolic activity by a 3(4,5-dimethyl-thyazoyl-2-yl)2,5 diphenyltetrazolium bromide (MTT) colorimetric assay with absorbance at 405 nm, as described in Plescia et al. (Cancer Cell 7:457-468, 2005). Changes in protein expression under the various combination regimens were determined by immunoblotting.

The test system of assay [10] is U251 cells. Kind of assay: LC3-GFP fluorescence microscopy (autophagy). Particulars: 16 hours. It counts as cell-based, human. How it is done:
FIG. 10B is a fluorescence photomicrograph and a graph of the percentage of fluorescent U251 cells following transfection of U251 cells with LC3-GFP and treatment for 16 hours with vehicle (left photomicrograph) or G-TPP (right photomicrograph).
as §1

The test system of the next assay is FLIP in LN229 cells. The assay is described as follows: FLIP protein immunoblot. It counts as cell-based, human. The procedure: FIG. 13B is two immunoblots lysate from LN229 cells following treatment with G-TPP. The top immunoblot is a dose response experiment. The bottom immunoblot is a time-course experiment. FLIP (L) is the FLIP long form. FLIP(S) is the FLIP short form.
as §5

Assay [11] has as its system RelB, Bcl-3 mRNA in LN229 cells. Kind of assay: RelB and Bcl-3 mRNA expression. It counts as cell-based, human. From the text:
FIG. 13C is a Northern blot showing the PCR-amplified expression of RelB, Bcl-3, and GAPDH mRNA in LN229 cells following treatment with G-TPP.

The subject of assay [12] is p53 promoter in MCF-7 cells. Kind of assay: p53 luciferase promoter activity. It counts as cell-based, human. Particulars: MCF-7, after 5 hours. How it is done: FIG. 14A is a graph showing the RLU of MCF-7 cells from luciferase produced from a p53 promoter following no treatment or treatment with G-TPP, Eto 10, Eto 10 and G-TPP, Eto 20, and Eto 20 and G-TPP. Cells were analyzed after 5 hours for β-galactosidase-normalized p53 luciferase promoter activity.
as §3

The test system of the next assay is cancer cells. The assay is described as follows: Pan-caspase inhibitor effect on TRAIL+Gamitrinib apoptosis and caspase cleavage. It counts as cell-based. The procedure: as §4

Turning to `Cn1cnc(N)c2ncnc1-2` [3-methyladenine], in the assay on U87 cells [1], the “glioblastoma cell death induced by suboptimal concentrations of G-TPP (MTT)” value is given as “enhanced glioblastoma cell death”.

For the molecule `C=CCNC1=C2C[C@@H](C)C[C@H](OC)[C@H](O)[C@@H](C)/C=C(\C)[C@H](OC(N)=O)[C@@H](OC)/C=C\C=C(/C)C(=O)NC(=CC1=O)C2=O` [Gamitrinib 17-AAG, 17-allylamino demethoxygeldanamycin, reference compound], the “cell ultrastructure (electron microscopy)” value with LN229 cells [2] is recorded as “unremarkable”. Besides, the “NF-κB-mediated gene expression, constitutive” value in assay [3] is “no effect”. Moreover, in [4], the FLIP promoter activity result is “no effect”.

`CO[C@H]1/C=C\C=C(/C)C(=O)NC2=CC(=O)C(NCCCCCC[P+](c3ccccc3)(c3ccccc3)c3ccccc3)=C(C[C@@H](C)C[C@H](OC)[C@H](O)[C@@H](C)/C=C(\C)[C@@H]1OC(N)=O)C2=O` [Gamitrinib-TPP, triphenylphosphonium geldanamycin]: the “Annexin V positive and PI-negative tumor cells (apoptosis)” value in the assay on U251 cells [5] was “no significant effects”. The “cleavage of caspase-3 or -7” value in the assay with LN229 cells [6] and in the assay with U251 cells [7] was “did not or only weakly induce cleavage of caspase-3 or -7” in each case. Further, the “tumor size (bioluminescence)” value in assay [8] was “did not show any significant reduction in tumor size”. In addition, the “cell ultrastructure (electron microscopy)” value in the assay on LN229 cells [2] is “became completely filled with cytoplasmic vacuoles”. For the same molecule, in the assay on U87 cells [9], the “LC3 lipidated form (immunoblot)” value is “accumulated a lapidated form of the ubiquitin-like protein, light chain 3 (LC3)”. Further, in the assay on U251 cells [10], the LC3-GFP fluorescence pattern entry is on record as “exhibited a punctate fluorescence pattern”. In addition, the “NF-κB-mediated gene expression after stimulation with TNF-α” value in [3] is listed as “complete ablation”. Moreover, the “NF-κB-mediated gene expression, constitutive” value in [3] was “complete ablation”. Also, the FLIP promoter activity entry in assay [4] was “rapid downregulation”. Further, the FLIP protein expression result with FLIP in LN229 cells is given as “rapid downregulation”. Moreover, the “RelB and bcl-3 mRNA” value in assay [11] is on record as “rapid downregulation”. Moreover, in assay [12], the “etoposide-mediated induction of p53 luciferase promoter activity” value is on record as “unaffected”.

As for `CO/C1=C\C(C)=C\[C@@H](C)[C@@H](O)[C@@H](C)C/C(C)=C/C=C/[C@H](OC)[C@@H]([C@@H](C)[C@@H](O)[C@H](C)[C@@]2(O)C[C@@H](O)[C@H](C)[C@@H](C(C)C)O2)OC1=O` [bafilomycin A], the “glioblastoma cell death induced by suboptimal concentrations of G-TPP (MTT)” value in the assay with U87 cells [1] is given as “enhanced glioblastoma cell death”.

As for `COC(=O)CC(NC(=O)C(C)NC(=O)C(NC(=O)OCc1ccccc1)C(C)C)C(=O)CF` (stereo not drawn) [zVAD-fmk, benzyloxycarbonyl-Val-Ala-Asp(OMe)-fluoromethyl-ketone] (Cbz-Val-Ala-Asp(OMe)-CH2F; configuration not given here), in the assay on cancer cells (Western blotting), the “effect on cleavage of caspases induced by the combination of TRAIL and TPP-GA” value was “abolished cleavage of caspases”. For the same molecule, the “effect on TRAIL+Gamitrinib mediated apoptosis” value in the assay with cancer cells (pan-caspase inhibitor added to the combination) is given as “significantly attenuated”.

For “TRAIL: Recombinant TRAIL obtained from Peprotech; death receptor agonist”, in the assay with U251 cells [5], the “Annexin V positive and PI-negative tumor cells (apoptosis)” value is reported as “no significant effects”. For the same molecule, the “cleavage of caspase-3 or -7” value in the assay with LN229 cells [6] and with U251 cells [7] was “did not or only weakly induce cleavage of caspase-3 or -7” each time. In assay [8], the “tumor size (bioluminescence)” value was “did not show any significant reduction in tumor size”.
